Test results published in patent EP1611112B1, “ISOXAZOLE COMPOUNDS AS INHIBITORS OF HEAT SHOCK PROTEINS” (Vernalis (Cambridge) Limited, priority 2003, dated 2004).
pIC50: −log10 of the molar value.

Target: T1, yeast HSP90 (Saccharomyces cerevisiae, UniProt P02829)
T1 construct: made in house; host or cells: E. coli
Test: Malachite Green ATPase assay
Format: biochemical
Conditions: activity range
Excerpt: The intrinsic ATPase activity of HSP90 may be measured using yeast HSP90 as a model system. The assay, based on the use of malachite green for the measurement of inorganic phosphate, was used to test the HSP90 inhibitory activity of some of the compounds of the Examples herein.
Malachite Green ATPase Assay
Chemicals are of the highest purity commercially available and all aqueous solutions are made up in AR water. Because of the need to minimise contamination with inorganic phosphate, precautions should be taken with solutions and apparatus used in the assays. Glassware and pH meters are rinsed with double distilled or deionised water before use and, wherever possible, plastic ware should be used. Gloves are worn for all procedures. • (1) Greiner 384-well (Greiner 781101) or Costar 384-well flat-bottomed polystyrene multiwell plates (VWR). • (2) Assay buffer of (a) 100mM Tris-HCI, pH 7.4, (b) 150mM KCI, (c) 6mM MgCl2. Stored at room temperature. • (3) 0.0812% (w/v) malachite green (M 9636, Sigma Aldrich Ltd., Poole, UK). Stored at room temperature. • (4) 2.32% (w/v) polyvinyl alcohol USP (P 1097, Sigma Aldrich Ltd, Poole, UK) in boiling water (see Comment 1), allowed to cool, and stored at room temperature. • (5) 5.72% (w/v) ammonium molybdate in 6 M hydrochloric acid. Stored at room temperature. • (6) 34% (w/v) sodium citrate. Stored at room temperature. • (7) 100mM ATP, disodium salt, special quality (47699, Sigma Aldrich). Stored at -20°C. • (8) E. coli expressed yeast HSP90 protein, purified >95% (see, e.g., Panaretou et al., 1998) and stored in 50uL aliquots at -80°C.
• 1. Dilute test compounds to 500µM in AR water (DMSO concentration will be 2.5%). Transfer 2.5µl of these compounds directly from the daughter plate to the assay plate, giving a final assay concentration of 100µM. […] Column 1 in the assay plate contains no compound, as a negative control. An additional row with no compound is also used as a background. • 2. Prepare ATP by diluting 100mM stock to 925µM with assay buffer, and aliquot 5µl of diluted ATP to each well including controls (final assay concentration 370µM). • 3. Add 5µl of buffer to background row. • 4. Dilute enzyme preparation to 1.05µM with assay buffer, and aliquot 5µl into each compound well and to the negative control column. • 5. Collect the reagents to the bottom of the well, cover plate with plate seal and incubate overnight at 37degC. • 6. First thing in the morning prepare the Malachite Green Reagent. Add 2parts of Malachite Green Solution, 1 part of Polyvinyl Alcohol Solution, 1 part of Ammonium Molybdate Solution, and 2 parts of AR water. • 7. Invert to mix, and leave for approximately 1 hour until the colour turns from brown to golden yellow. • 8. Add 40µl of Malachite Green Reagent to each well, allow 5 mins for colour to develop. • 9. Add 5µl of Sodium Citrate Reagent to each well (see comment 2) • 10. Re-cover with plate seal and shake on plate shaker for at least 15 mins. • 11. Measure Absorbance at 620nm using a suitable plate reader (e.g. Victor, Perkin Elmer Life Sciences, Milton Keynes, UK). Under these conditions, the control absorbance is 0.9 to 1.4, and the background is 0.2-0.35 giving a signal to noise ratio of -12. The Z' factor calculated from data obtained using these conditions is between 0.6 and 0.9.
• (1) The polyvinyl alcohol dissolves in boiling water with difficulty and stirring for 2-3 h is required. • (2) The time interval between addition of the malachite green reagent and the sodium citrate should be kept as short as possible in order to reduce the non-enzymatic hydrolysis of ATP. Once the sodium citrate is added, the colour is stable for up to 4 h at room temperature. • (3) Compounds can be added to the assay plates using a Biomek FX Robot (Beckman Coulter). […]

T1 sequence (P02829 whole entry): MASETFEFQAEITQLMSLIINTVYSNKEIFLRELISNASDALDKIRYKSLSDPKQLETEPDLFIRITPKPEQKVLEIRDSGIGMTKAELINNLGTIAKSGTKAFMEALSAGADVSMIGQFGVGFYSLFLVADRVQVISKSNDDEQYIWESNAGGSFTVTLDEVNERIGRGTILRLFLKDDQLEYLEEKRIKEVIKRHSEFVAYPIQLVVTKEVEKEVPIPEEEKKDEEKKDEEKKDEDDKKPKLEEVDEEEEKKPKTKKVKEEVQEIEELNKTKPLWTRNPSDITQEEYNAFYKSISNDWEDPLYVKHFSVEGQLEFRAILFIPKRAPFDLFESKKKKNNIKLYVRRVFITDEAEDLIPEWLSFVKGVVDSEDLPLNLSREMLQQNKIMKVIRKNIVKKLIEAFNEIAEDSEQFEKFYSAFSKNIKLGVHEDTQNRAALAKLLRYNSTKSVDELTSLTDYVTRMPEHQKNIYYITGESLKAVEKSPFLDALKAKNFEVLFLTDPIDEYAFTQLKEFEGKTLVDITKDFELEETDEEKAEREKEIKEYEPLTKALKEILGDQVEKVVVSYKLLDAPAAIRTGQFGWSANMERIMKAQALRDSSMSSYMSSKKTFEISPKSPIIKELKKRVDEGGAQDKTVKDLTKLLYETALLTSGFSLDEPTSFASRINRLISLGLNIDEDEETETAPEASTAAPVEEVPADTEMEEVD

Compared with `Cc1noc(-c2ccc(O)cc2O)c1-c1ccc2c(c1)OCCO2` [Example 5], `Cc1noc(-c2ccc(O)cc2O)c1-c1ccc(F)cc1` [Example 9] is higher in pIC50: under 4.30 for the first, over 4.30 for the second. The second is the more potent here.

`Oc1ccc(Cl)cc1-c1oncc1-c1ccc2c(c1)OCCO2` [Example 6] and `Oc1ccccc1-c1oncc1-c1ccc2c(c1)OCCO2` [Example 7] cannot be ordered by pIC50: under 4.30 for the first, under 4.30 for the second.

First: COc1ccc(-c2cnoc2-c2cc(Cl)c(O)cc2O)cc1OC [Example 8]
Second: CCc1cc(-c2oncc2-c2ccc(OC)c(OC)c2)c(O)cc1O [Example 11]
The pIC50 of the first is lower: under 4.30 for the first, over 4.30 for the second.

Going from `Cc1noc(-c2cc(Cl)c(O)cc2O)c1-c1ccccc1` [Example 10] to `COc1ccc(-c2c(C)noc2-c2cc(C=O)c(O)cc2O)cc1` [Example 17], the pIC50 falls from over 4.30 to under 4.30. The first is the more potent here.

`COc1ccc(-c2c(C)noc2-c2cc(-c3cccnc3)c(O)cc2O)cc1` [Example 12] and `COc1ccc(-c2c(C)noc2-c2cc(C(=S)Nc3ccccc3)c(O)cc2O)cc1` [Example 18] cannot be ordered by pIC50: under 4.30 for the first, under 4.30 for the second.

`Oc1cc(O)c(-c2oncc2-c2ccc(Br)cc2)cc1Cl` [Example 12a] and `Cc1cc(O)cc(O)c1-c1oncc1-c1csc(-c2ccccc2)n1` [Example 12c] cannot be ordered by pIC50: over 4.30 for the first, over 4.30 for the second.

`Cc1cc(O)cc(O)c1-c1onc(C(F)(F)F)c1-c1cscn1` [Example 12d] and `CCCCCc1noc(-c2ccc(O)cc2O)c1-c1ccc(OC)cc1` [Example 21] cannot be ordered by pIC50: over 4.30 for the first, over 4.30 for the second.

`COc1ccc(-c2c(C)noc2-c2cc(C(=O)Nc3ccccc3OC)c(O)cc2O)cc1` [Example 19] and `COc1ccc(-c2c(C)noc2-c2cc(C(OC)c3ccccc3)c(O)cc2O)cc1` (stereo not shown) [Example 20] cannot be ordered by pIC50: over 4.30 for the first, over 4.30 for the second.

Test system: not listed separately
Test: Sulforhodamine B (SRB) growth inhibition / growth arrest assay
Format: cell-based
Conditions: cell line not named
Protocol: A growth inhibition assay was also employed for the evaluation of candidate HSP90 inhibitors: • Assessment of cytotoxicity by Sulforhodamine B (SRB) assay: calculation of 50% inhibitory concentration (IC50).
• 1) Determine cell number by haemocytometer. • 2) Using an 8 channel multipipettor, add 160µl of the cell suspension (3600 cells/well or 2 x 10^4 cells/ml) to each well of a 96-well microtitre plate. • 3) Incubate overnight at 37°C in a CO2 incubator. […]
• 8) Tip off medium into sink and immerse plate slowly into 10% ice cold trichloroacetic acid (TCA). […] Leave for 15 mins. • 12)Wash off unbound SRB stain with four washes of 1% acetic acid. • 13)Dry plates in incubator. • 14)Solubilise SRB using 100µl of 10mM Tris base and put plates on plate shaker for 5 mins. • 15)Determine absorbance at 540nm using a plate reader. Calculate mean absorbance for quadruplicate wells and express as a percentage of value for control, untreated wells. • 16)Plot % absorbance values versus log drug concentration and determine the IC50. […]

Molecule `COc1ccc(-c2c(C)noc2-c2cc(Br)c(O)cc2O)cc1` [Example 2, 4-Bromo-6-[4-(4-methoxy-phenyl)-3-methyl-isoxazol-5-yl]-benzene-1,3-diol] has a pIC50 of over 4.30.

Target: T2, human full-length HSP90 (Homo sapiens, UniProt P08238)
T2 construct: E. coli expressed human full-length HSP90 protein; made in house; host or cells: E. coli
T2 sequence (P08238 whole entry): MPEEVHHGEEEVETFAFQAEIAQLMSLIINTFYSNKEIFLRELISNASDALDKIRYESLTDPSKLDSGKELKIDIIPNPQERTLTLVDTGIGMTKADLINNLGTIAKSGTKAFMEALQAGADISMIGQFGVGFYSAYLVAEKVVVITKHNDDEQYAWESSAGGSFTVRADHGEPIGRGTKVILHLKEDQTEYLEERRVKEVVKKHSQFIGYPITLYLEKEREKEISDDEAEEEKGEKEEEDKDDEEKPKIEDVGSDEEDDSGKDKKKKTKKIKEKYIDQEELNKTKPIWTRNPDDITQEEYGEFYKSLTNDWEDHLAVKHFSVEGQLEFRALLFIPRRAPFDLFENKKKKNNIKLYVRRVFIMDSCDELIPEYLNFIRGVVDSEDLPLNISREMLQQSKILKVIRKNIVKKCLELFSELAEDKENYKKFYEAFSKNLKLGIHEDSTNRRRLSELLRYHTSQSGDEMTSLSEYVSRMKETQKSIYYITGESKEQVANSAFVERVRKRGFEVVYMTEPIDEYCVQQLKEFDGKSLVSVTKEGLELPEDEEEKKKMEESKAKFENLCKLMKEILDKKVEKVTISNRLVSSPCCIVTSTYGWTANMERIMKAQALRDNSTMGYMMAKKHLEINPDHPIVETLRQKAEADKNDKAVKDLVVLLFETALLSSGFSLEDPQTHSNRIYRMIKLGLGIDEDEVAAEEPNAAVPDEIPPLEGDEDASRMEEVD
Test: Fluorescence Polarisation Assay (displacement of fluorescein-labelled probe RBT0045864-FAM)
Format: binding
Conditions: Fluorescence Polarisation Assay, activity range
Excerpt: A Fluorescence Polarization_assay was also employed for the evaluation of some of the compounds of the Examples:
Fluorescence polarization {also known as fluorescence anisotropy} measures the rotation of a fluorescing species in solution, where the larger molecule the more polarized the fluorescence emission.
When the fluorophore is excited with polarized light, the emitted light is also polarized. The molecular size is proportional to the polarization of the fluorescence emission.
Test compound is added to the assay plate, left to equilibrate and the anisotropy measured again. Any change in anisotropy is due to competitive binding of compound to HSP90, thereby releasing probe.
Stored at room temperature. • 3) BSA (bovine serum albumen) 10 mg/ml (New England Biolabs # B9001S) • 4) 20 mM probe in 100 % DMSO stock concentration. Stored in the dark at RT. Working concentration is 200 nM diluted in AR water and stored at 4 °C.
1) Add 100µl 1x buffer to wells 11A and 12A (=FP BLNK) 2) Prepare assay mix - all reagents are kept on ice with a lid on the bucket as the probe is light-sensitive.
This gives 2.5 mM {50x} stock cpd - assuming cpds 20 mM. • 4) Repeat for wells A2 to A10. Control in columns 11 and 12. • 5) Transfer 5 µl from row A to row B- not column 12. Mix well. • 6) Transfer 5 µl from row B to row C. […] Add 2 µl of 100mM standard cpd to wells B12 - H12 {is positive control } • 13)The Z' factor is calculated from zero controls and positive wells.

In the case of `COc1ccc(-c2c(C)noc2-c2cc(Br)c(O)cc2O)cc1` [Example 2, 4-Bromo-6-[4-(4-methoxy-phenyl)-3-methyl-isoxazol-5-yl]-benzene-1,3-diol], the pIC50 was over 5.00.

Same assay, conditions: table names no assay; parent examples tested in fluorescence polarization assay

In the case of `CC(C)NC(=O)c1noc(-c2cc(C(C)C)c(O)cc2O)c1-c1ccc(CNC(C)(C)C)cc1` [Example 78z], the pIC50 was over 5.00.
